# In patent publication US20230017045A1, “PYRIDINE AND PYRIMIDINE CARBOXYLATE HERBICIDES AND METHODS OF USE THEREOF” (Dow AgroSciences LLC, priority 2017, published 2023):
# Tested on: test plant species
# Experiment: Post-emergent herbicidal activity test (greenhouse, foliar spray, visual growth reduction)
# Type: in vivo
# Conditions: post-emergence, 336 h, ALOMY: blackgrass (Alopecurus myosuroides), 140 g ai/ha, 14 days after application, read-out: Visual Growth Reduction (%) 14 Days After Application, ALOMY
# Summary of the method: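 Plants grown in greenhouse (15 h photoperiod, 23-29° C day/22-28° C night) to first or second true leaf stage were sprayed overhead with compound in acetone/water/isopropanol/DMSO/crop oil/X-77 carrier at 187 L/ha. Injury was scored visually after 14 d on a 0-100% scale versus solvent-blank and untreated controls.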
row,Compound,pest or weed control at 140 g/ha [%]
1,"COC(=O)c1nc(-c2ccc(C3CC3(F)F)cc2Cl)ccc1Cl (stereo not drawn) [F13, methyl 3-chloro-6-(2-chloro-4-(2,2 difluorocyclopropyl)phenyl) picolinate]",0 to 29
2,"COC(=O)c1nc(-c2ccc(C(F)(F)F)cc2Cl)c(F)c(Cl)c1Cl [F43, methyl 3,4-dichloro-6-(2-chloro-4-(trifluoromethyl)phenyl)-5-fluoropicolinate]",0 to 29

# Same assay, conditions: post-emergence, 336 h, AMARE: redroot pigweed (Amaranthus retroflexus), 140 g ai/ha, 14 days after application, read-out: Visual Growth Reduction (%) 14 Days After Application, AMARE
row,Compound,pest or weed control at 140 g/ha [%]
1,"COC(=O)c1nc(-c2ccc(C3CC3(F)F)cc2Cl)ccc1Cl (stereo not drawn) [F13, methyl 3-chloro-6-(2-chloro-4-(2,2 difluorocyclopropyl)phenyl) picolinate]",75 to 84
2,"COC(=O)c1nc(-c2ccc(C(F)(F)F)cc2Cl)c(F)c(Cl)c1Cl [F43, methyl 3,4-dichloro-6-(2-chloro-4-(trifluoromethyl)phenyl)-5-fluoropicolinate]",0 to 29

# Same assay, conditions: post-emergence, 336 h, AVEFA: wild oat (Avena fatua), 140 g ai/ha, 14 days after application, read-out: Visual Growth Reduction (%) 14 Days After Application, AVEFA
row,Compound,pest or weed control at 140 g/ha [%]
1,"COC(=O)c1nc(-c2ccc(C3CC3(F)F)cc2Cl)ccc1Cl (stereo not drawn) [F13, methyl 3-chloro-6-(2-chloro-4-(2,2 difluorocyclopropyl)phenyl) picolinate]",0 to 29
2,"COC(=O)c1nc(-c2ccc(C(F)(F)F)cc2Cl)c(F)c(Cl)c1Cl [F43, methyl 3,4-dichloro-6-(2-chloro-4-(trifluoromethyl)phenyl)-5-fluoropicolinate]",0 to 29

# Same assay, conditions: post-emergence, 336 h, CHEAL: lambsquarters (Chenopodium album), 140 g ai/ha, 14 days after application, read-out: Visual Growth Reduction (%) 14 Days After Application, CHEAL
row,Compound,pest or weed control at 140 g/ha [%]
1,"COC(=O)c1nc(-c2ccc(C3CC3(F)F)cc2Cl)ccc1Cl (stereo not drawn) [F13, methyl 3-chloro-6-(2-chloro-4-(2,2 difluorocyclopropyl)phenyl) picolinate]",85 to 94
2,"COC(=O)c1nc(-c2ccc(C(F)(F)F)cc2Cl)c(F)c(Cl)c1Cl [F43, methyl 3,4-dichloro-6-(2-chloro-4-(trifluoromethyl)phenyl)-5-fluoropicolinate]",0 to 29

# Same assay, conditions: post-emergence, 336 h, CIRAR: canada thistle (Cirsium arvense), 140 g ai/ha, 14 days after application, read-out: Visual Growth Reduction (%) 14 Days After Application, CIRAR
row,Compound,pest or weed control at 140 g/ha [%]
1,"COC(=O)c1nc(-c2ccc(C3CC3(F)F)cc2Cl)ccc1Cl (stereo not drawn) [F13, methyl 3-chloro-6-(2-chloro-4-(2,2 difluorocyclopropyl)phenyl) picolinate]",85 to 94
2,"COC(=O)c1nc(-c2ccc(C(F)(F)F)cc2Cl)c(F)c(Cl)c1Cl [F43, methyl 3,4-dichloro-6-(2-chloro-4-(trifluoromethyl)phenyl)-5-fluoropicolinate]",0 to 29

# Same assay, conditions: post-emergence, 336 h, CYPES: yellow nutsedge (Cyperus esculentus), 140 g ai/ha, 14 days after application, read-out: Visual Growth Reduction (%) 14 Days After Application, CYPES
row,Compound,pest or weed control at 140 g/ha [%]
1,"COC(=O)c1nc(-c2ccc(C3CC3(F)F)cc2Cl)ccc1Cl (stereo not drawn) [F13, methyl 3-chloro-6-(2-chloro-4-(2,2 difluorocyclopropyl)phenyl) picolinate]",0 to 29
2,"COC(=O)c1nc(-c2ccc(C(F)(F)F)cc2Cl)c(F)c(Cl)c1Cl [F43, methyl 3,4-dichloro-6-(2-chloro-4-(trifluoromethyl)phenyl)-5-fluoropicolinate]",0 to 29

# Same assay, conditions: post-emergence, 336 h, DIGSA: crabgrass (Digitaria sanguinalis), 140 g ai/ha, 14 days after application, read-out: Visual Growth Reduction (%) 14 Days After Application, DIGSA
row,Compound,pest or weed control at 140 g/ha [%]
1,"COC(=O)c1nc(-c2ccc(C3CC3(F)F)cc2Cl)ccc1Cl (stereo not drawn) [F13, methyl 3-chloro-6-(2-chloro-4-(2,2 difluorocyclopropyl)phenyl) picolinate]",0 to 29
2,"COC(=O)c1nc(-c2ccc(C(F)(F)F)cc2Cl)c(F)c(Cl)c1Cl [F43, methyl 3,4-dichloro-6-(2-chloro-4-(trifluoromethyl)phenyl)-5-fluoropicolinate]",0 to 29

# Same assay, conditions: post-emergence, 336 h, ECHCG: barnyardgrass (Echinochloa crus-galli), 140 g ai/ha, 14 days after application, read-out: Visual Growth Reduction (%) 14 Days After Application, ECHCG
row,Compound,pest or weed control at 140 g/ha [%]
1,"COC(=O)c1nc(-c2ccc(C(F)(F)F)cc2Cl)c(F)c(Cl)c1Cl [F43, methyl 3,4-dichloro-6-(2-chloro-4-(trifluoromethyl)phenyl)-5-fluoropicolinate]",0 to 29

# Same assay, conditions: post-emergence, 336 h, IPOHE: ivy-leaf morning glory (Ipomoea hederacea), 140 g ai/ha, 14 days after application, read-out: Visual Growth Reduction (%) 14 Days After Application, IPOHE
row,Compound,pest or weed control at 140 g/ha [%]
1,"COC(=O)c1nc(-c2ccc(C(F)(F)F)cc2Cl)c(F)c(Cl)c1Cl [F43, methyl 3,4-dichloro-6-(2-chloro-4-(trifluoromethyl)phenyl)-5-fluoropicolinate]",0 to 29

# Same assay, conditions: post-emergence, 336 h, KCHSC: kochia (Bassia scoparia), 140 g ai/ha, 14 days after application, read-out: Visual Growth Reduction (%) 14 Days After Application, KCHSC
row,Compound,pest or weed control at 140 g/ha [%]
1,"COC(=O)c1nc(-c2ccc(C(F)(F)F)cc2Cl)c(F)c(Cl)c1Cl [F43, methyl 3,4-dichloro-6-(2-chloro-4-(trifluoromethyl)phenyl)-5-fluoropicolinate]",0 to 29

# Same assay, conditions: post-emergence, 336 h, ORYSA: rice (Oryza sativa), 140 g ai/ha, 14 days after application, read-out: Visual Growth Reduction (%) 14 Days After Application, ORYSA
row,Compound,pest or weed control at 140 g/ha [%]
1,"COC(=O)c1nc(-c2ccc(C(F)(F)F)cc2Cl)c(F)c(Cl)c1Cl [F43, methyl 3,4-dichloro-6-(2-chloro-4-(trifluoromethyl)phenyl)-5-fluoropicolinate]",0 to 29

# Same assay, conditions: post-emergence, 336 h, SETFA: giant foxtail (Setaria faberi), 140 g ai/ha, 14 days after application, read-out: Visual Growth Reduction (%) 14 Days After Application, SETFA
row,Compound,pest or weed control at 140 g/ha [%]
1,"COC(=O)c1nc(-c2ccc(C(F)(F)F)cc2Cl)c(F)c(Cl)c1Cl [F43, methyl 3,4-dichloro-6-(2-chloro-4-(trifluoromethyl)phenyl)-5-fluoropicolinate]",0 to 29

# Same assay, conditions: post-emergence, 336 h, SORVU: grain sorghum (Sorghum vulgare), 140 g ai/ha, 14 days after application, read-out: Visual Growth Reduction (%) 14 Days After Application, SORVU
row,Compound,pest or weed control at 140 g/ha [%]
1,"COC(=O)c1nc(-c2ccc(C(F)(F)F)cc2Cl)c(F)c(Cl)c1Cl [F43, methyl 3,4-dichloro-6-(2-chloro-4-(trifluoromethyl)phenyl)-5-fluoropicolinate]",45 to 59

# Same assay, conditions: post-emergence, 336 h, STEME: common chickweed (Stellaria media), 140 g ai/ha, 14 days after application, read-out: Visual Growth Reduction (%) 14 Days After Application, STEME
row,Compound,pest or weed control at 140 g/ha [%]
1,"COC(=O)c1nc(-c2ccc(C(F)(F)F)cc2Cl)c(F)c(Cl)c1Cl [F43, methyl 3,4-dichloro-6-(2-chloro-4-(trifluoromethyl)phenyl)-5-fluoropicolinate]",0 to 29

# Same assay, conditions: post-emergence, 336 h, TRZAS: wheat, spring (Triticum aestivum), 140 g ai/ha, 14 days after application, read-out: Visual Growth Reduction (%) 14 Days After Application, TRZAS
row,Compound,pest or weed control at 140 g/ha [%]
1,"COC(=O)c1nc(-c2ccc(C(F)(F)F)cc2Cl)c(F)c(Cl)c1Cl [F43, methyl 3,4-dichloro-6-(2-chloro-4-(trifluoromethyl)phenyl)-5-fluoropicolinate]",0 to 29

# Same assay, conditions: post-emergence, 336 h, barnyardgrass (Echinochloa crus-galli), 14 Days After Application, 140 g ai/ha, read-out: Visual Growth Reduction (%) ECHCG
row,Compound,pest or weed control at 140 g/ha [%]
1,"COC(=O)c1nc(-c2ccc(C3CC3(F)F)cc2Cl)ccc1Cl (stereo not drawn) [F13, methyl 3-chloro-6-(2-chloro-4-(2,2 difluorocyclopropyl)phenyl) picolinate]",0 to 29

# Same assay, conditions: post-emergence, 336 h, common chickweed (Stellaria media), 14 Days After Application, 140 g ai/ha, read-out: Visual Growth Reduction (%) STEME
row,Compound,pest or weed control at 140 g/ha [%]
1,"COC(=O)c1nc(-c2ccc(C3CC3(F)F)cc2Cl)ccc1Cl (stereo not drawn) [F13, methyl 3-chloro-6-(2-chloro-4-(2,2 difluorocyclopropyl)phenyl) picolinate]",0 to 29

# Same assay, conditions: post-emergence, 336 h, giant foxtail (Setaria faberi), 14 Days After Application, 140 g ai/ha, read-out: Visual Growth Reduction (%) SETFA
row,Compound,pest or weed control at 140 g/ha [%]
1,"COC(=O)c1nc(-c2ccc(C3CC3(F)F)cc2Cl)ccc1Cl (stereo not drawn) [F13, methyl 3-chloro-6-(2-chloro-4-(2,2 difluorocyclopropyl)phenyl) picolinate]",0 to 29

# Same assay, conditions: post-emergence, 336 h, ivy-leaf morning glory (Ipomoea hederacea), 14 Days After Application, 140 g ai/ha, read-out: Visual Growth Reduction (%) IPOHE
row,Compound,pest or weed control at 140 g/ha [%]
1,"COC(=O)c1nc(-c2ccc(C3CC3(F)F)cc2Cl)ccc1Cl (stereo not drawn) [F13, methyl 3-chloro-6-(2-chloro-4-(2,2 difluorocyclopropyl)phenyl) picolinate]",95 to 100

# Same assay, conditions: post-emergence, 336 h, johnsongrass (Sorghum vulgare), 14 Days After Application, 140 g ai/ha, read-out: Visual Growth Reduction (%) SORVU
row,Compound,pest or weed control at 140 g/ha [%]
1,"COC(=O)c1nc(-c2ccc(C3CC3(F)F)cc2Cl)ccc1Cl (stereo not drawn) [F13, methyl 3-chloro-6-(2-chloro-4-(2,2 difluorocyclopropyl)phenyl) picolinate]",60 to 74

# Same assay, conditions: post-emergence, 336 h, kochia (Bassia scoparia), 14 Days After Application, 140 g ai/ha, read-out: Visual Growth Reduction (%) KCHSC
row,Compound,pest or weed control at 140 g/ha [%]
1,"COC(=O)c1nc(-c2ccc(C3CC3(F)F)cc2Cl)ccc1Cl (stereo not drawn) [F13, methyl 3-chloro-6-(2-chloro-4-(2,2 difluorocyclopropyl)phenyl) picolinate]",60 to 74

# Same assay, conditions: post-emergence, 336 h, rice (Oryza sativa), 14 Days After Application, 140 g ai/ha, read-out: Visual Growth Reduction (%) ORYSA
row,Compound,pest or weed control at 140 g/ha [%]
1,"COC(=O)c1nc(-c2ccc(C3CC3(F)F)cc2Cl)ccc1Cl (stereo not drawn) [F13, methyl 3-chloro-6-(2-chloro-4-(2,2 difluorocyclopropyl)phenyl) picolinate]",0 to 29

# Same assay, conditions: post-emergence, 336 h, wheat, spring (Triticum aestivum), 14 Days After Application, 140 g ai/ha, read-out: Visual Growth Reduction (%) TRZAS
row,Compound,pest or weed control at 140 g/ha [%]
1,"COC(=O)c1nc(-c2ccc(C3CC3(F)F)cc2Cl)ccc1Cl (stereo not drawn) [F13, methyl 3-chloro-6-(2-chloro-4-(2,2 difluorocyclopropyl)phenyl) picolinate]",0 to 29
